Experiments:
[1] = test system: Aphis aossypii (Cotton Aphid); assay: Example B13: activity against cotton aphid, mixed population, systemic/feeding; assay type: in vivo; conditions: 144 h, 6 days, roots in test solution (systemic)
Description: Activity Against Aphis aossypii (Cotton Aphid)
(§1) (Mixed Population, Systemic/Feeding)
(§2) 6 days later, samples are checked for mortality.

[2] = test system: Heliothis virescens (Tobacco Budworm); assay: Example B2: activity against Heliothis virescens, ovo-larvicide, feeding/contact, curative; assay type: in vivo; conditions: 96 h, 4 days incubation, eggs 0-24 h old
Method: Activity Against Heliothis virescens (Tobacco Budworm)
(Ovo-Larvicide, Feeding/Contact Activity, Curative)
Eggs (0-24 h old) are placed in 24-well microtiter plate on artificial diet and treated with test solutions by pipetting. After an incubation period of 4 days, samples are checked for egg mortality, larval mortality, and growth regulation.

[3] = test system: Thrips tabaci (Onion Thrips); assay: Example B7: activity against Thrips tabaci, mixed population, feeding/residual contact, preventive; conditions: 144 h, read-out: activity
[4] = test system: Myzus persicae (Green Peach Aphid); assay: Example B6: activity against Myzus persicae, mixed population, systemic/feeding, curative (pea seedling roots); conditions: 144 h, read-out: activity
[5] = test system: Plutella xylostella (Diamond Back Moth); assay: Example B3: Plutella xylostella, larvicide, feeding/residual contact, preventive (artificial diet MTP); assay type: in vivo; conditions: 120 h, 5 days incubation, L2 larvae
Summary of the method: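 Artificial diet in multiwell plates treated with test solution, dried, then infested with 10–15 L2 larvae per well. After 5 days, larval mortality, antifeedant effect and growth regulation were scored.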

[6] = test system: Aphis craccivora (Pea Aphid); assay: Example B11: activity against Aphis craccivora, mixed population, systemic/feeding; assay type: in vivo; conditions: 144 h, 6 days, roots in test solution (systemic)
Description: (§3) Activity Against Aphis craccivora (Pea Aphid)
as §1, §2

[7] = test system: Spodoptera littoralis (Egyptian Cotton Leafworm); assay: Example B1: activity against Spodoptera littoralis, larvicide, feeding/residual contact, preventive (cotton leaf discs); assay type: in vivo; conditions: foliar, 72 h, 3 days after treatment, L1 larvae
[8] = test system: Myzus persicae (Green Peach Aphid); assay: Example B5: activity against Myzus persicae, mixed population, feeding/residual contact, preventive (sunflower leaf discs); conditions: foliar, 144 h, read-out: activity
[9] = test system: Aphis craccivora (Pea Aphid); assay: Example B10: activity against Aphis craccivora, mixed population, contact/feeding; assay type: in vivo; conditions: 144 h, 6 days after treatment, spray (contact/feeding)
Description: as §3
(Mixed Population, Contact/Feeding)
6 days after treatment, samples are checked for mortality.

[10] = test system: Frankliniella occidentalis (Western Flower Thrips); assay: Example B9: activity against Frankliniella occidentalis (bean leaf discs or bean plants); assay type: in vivo; conditions: foliar, 6 days (leaf discs) or 14 days (plants) after infestation
Method: Activity Against Frankliniella occidentalis (Western Flower Thrips)
Bean leaf discs on agar in petri dishes or bean plants in a spray chamber are treated with diluted test solutions. After drying leaf discs are cut and placed in plastic cups on the surface of an agar layer and infested with mixed population. 6 days (leaf discs) or 14 days (plants) after the infestation, samples are checked for reduction of treated population and compared to the non treated population.

[11] = test system: Diabrotica balteata (Corn Root Worm); assay: Example B4: Diabrotica balteata, larvicide, feeding/residual contact, preventive; assay type: in vivo; conditions: 120 h, 5 days incubation, L2 larvae
Summary of the method: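 Artificial diet treated with test solution, dried, then infested with 6-10 L2 larvae per well. Larval mortality, antifeedant effect and growth regulation checked after 5 days of incubation.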

[12] = test system: Cydia pomonella (Codling Moth); assay: Example B8: activity against Cydia pomonella (paraffin-coated diet cubes); assay type: in vivo; conditions: 336 h, 14 days incubation at 26° C.
Method: Activity Against Cydia pomonella (Codling Moth)
Standard Cydia diet cubes (1.5 cm width) are pierced with a tooth-pick and are immersed in liquid paraffin (ca. 80° C.). After the paraffin coat has hardened, an aqueous emulsion containing 400 ppm of active ingredient is applied using a De Vilbis sprayer (25 ml, 1 bar). After the spray coating has dried, the cubes are put into plastic containers which are then populated with two freshly hatched Cydia pomonella (1st instar). The containers are then closed with a plastic cap. After 14 days incubation at 26° C. and 40-60% relative humidity, the survival rate of the caterpillars as well as their growth regulation is determined. In this test, compounds listed in Table P above show good activity. In particular compounds P.10, P.11, P.12, P.18, P.19, P.20, P.29, P.30, P.31, P.32, P.33, P.34, P.35, P.37, P.38, P.39, P.42, and P.43 show an activity of over 80% at a concentration of 400 ppm.

Measured: pest or weed control at 400 ppm

COc1cc(C(=O)Nc2c(Cl)cc3cn[nH]c3c2C(=O)NC(C)C)n(-c2ncccc2Cl)n1 [P.40]
not listed: [11] | [12]
> 80%: all other assays above

COc1cc(C(=O)Nc2c(Cl)cc3cn[nH]c3c2C(=O)NC2(C)CS(=O)(=O)C2)n(-c2ncccc2Cl)n1 [P.61, 5-chloro-6-{[2-(3-chloro-pyridin-2-yl)-5-methoxy-2H-pyrazole-3-carbonyl]-amino}-1H-indazole-7-carboxylic acid (3-methyl-1,1-dioxo-1lambda*6*-thietan-3-yl)-amide]
not listed: [3] | [9] | [11] | [12]
> 80%: all other assays above

O=C(NC1(C2CC2)CC1)c1c(NC(=O)c2cc(Br)nn2-c2ncccc2Cl)c(Cl)cc2cn[nH]c12 [P.46]
not listed: [1] | [12]
> 80%: all other assays above

CC(C)NC(=O)c1c(NC(=O)c2cc(C(F)F)nn2-c2ncccc2Cl)c(Cl)cc2cn[nH]c12 [P.39]
not listed: [9]
> 80%: all other assays above

COc1cc(C(=O)Nc2c(C)cc3cn[nH]c3c2C(=O)NC(C)C)n(-c2ncccc2Cl)n1 [P.27, 6-{[2-(3-chloro-pyridin-2-yl)-5-methoxy-2H-pyrazole-3-carbonyl]-amino}-5-methyl-1H-indazole-7-carboxylic acid isopropylamide]
not listed: [12]
> 80%: all other assays above

Cc1cc2cn[nH]c2c(C(=O)NC2(C3CC3)CC2)c1NC(=O)c1cc(C(F)(F)F)nn1-c1ncccc1Cl [P.49]
not listed: [1] | [12]
> 80%: all other assays above

Cc1cc2cn[nH]c2c(C(=O)NC(C)C)c1NC(=O)c1cc(C(F)F)nn1-c1ncccc1Cl [P.56, 6-{[2-(3-chloro-pyridin-2-yl)-5-difluoromethyl-2H-pyrazole-3-carbonyl]-amino}-5-methyl-1H-indazole-7-carboxylic acid isopropylamide]
not listed: [9] | [11] | [12]
> 80%: all other assays above

COc1cc(C(=O)Nc2c(Cl)cc3cn[nH]c3c2C(=O)NC(C)(C)CS(C)(=O)=O)n(-c2ncccc2Cl)n1 [P.60]
not listed: [3] | [9] | [11] | [12]
> 80%: all other assays above

COc1cc(C(=O)Nc2c(C)cc3cn[nH]c3c2C(=O)NC2(C3CC3)CC2)n(-c2ncccc2Cl)n1 [P.28, 6-{[2-(3-chloro-pyridin-2-yl)-5-methoxy-2H-pyrazole-3-carbonyl]-amino}-5-methyl-1H-indazole-7-carboxylic acid bicyclopropyl-1-ylamide]
not listed: [12]
> 80%: all other assays above

Cc1cc2cn[nH]c2c(C(=O)NC(C)C)c1NC(=O)c1cc(C(F)(F)F)nn1-c1ncccc1Cl [P.44]
not listed: [12]
> 80%: all other assays above

CC(C)NC(=O)c1c(NC(=O)c2cc(C(F)(F)F)nn2-c2ncccc2Cl)c(Cl)cc2cn[nH]c12 [P.10]
not listed: [1]
> 80%: all other assays above

— patent US8658801B2, “Pesticides containing a bicyclic bisamide structure” (Syngenta Crop Protection, LLC, priority 2006, dated 2014)
